Assay results: patent US20080227688A1, “Inhibition of viral replication” (priority 2007, published 2008)
Entries after “also recorded” stand apart in the source; their conditions may differ. *1 amine or outer side, *2 acyl side, *3 side chain or, on linkers, in order; H or OH if unused. Where a SMILES comes first, the peptide text is derived from it. [ ]: non-standard residue; d: D form. The star is where a group is joined. hPhe = N[CH](CCc1ccccc1)C(=O)O; Morpholide = C1CN(*)CCO1; CO = O=C([*:1])[*:2]; CH2F = FC*

Assays:
reovirus [1] = details: pharmacological inhibition of cellular cathepsin B; cited from earlier work
reovirus [2] = assay type: cell-based, Dearing strain of reovirus serotype 3
cellular cathepsin B = cellular cathepsin B (Homo sapiens, UniProt P07858); details: cited from earlier work
myxoma virus = assay type: cell-based, myxoma virus (strain Lausanne)
HIV type 1 virus = assay type: cell-based, HIV type 1 strain (NL4-3)
influenza A virus = assay: Influenza A infection of Mv1Lu cells, FACS; assay type: cell-based, Flu type A (A/New Cale/H1N1); details: 20 μM, 4 days
reovirus [3] = assay: HT1080 tumor xenograft in SCID mice with intratumoral reovirus, immunohistochemistry of tumor and heart; assay type: in vivo; details: 0.02 mg intratumorally, 16 days post-viral injection
Protocol: FIGS. 4A-4B: Z-FA-FMK blocks reovirus infection in vivo. (FIG. 4A) HT1080 cells were injected subcutaneously into hind flanks of SCID mice. After palpable tumors were established (11 days after implantation), tumors were injected with Live reovirus (L Reo; n=5 tumors), UV-inactivated reovirus (D Reo; n=5 tumors), Z-FA-FMK (FA; n=5 tumors) and Live reovius suspended in Z-FA-FMK solution (Reo+FA; n=5 tumors). Tumor growth was measured externally using calipers. Z-FA-FMK was dissolved in DMSO and administered as 0.02 mg suspended in PBS intratumorally per mouse everyday up to 7 days post viral injection, and every 2 days until completion of the experiment. […] Paraffin sections of tumors and heart tissues were analyzed by indirect immunohistochemical staining using reovirus antiserum as described in the Examples. […]
SCID mice (6-8 weeks, Charles River, Wilmington, Mass.) received a single subcutaneous implantation of 5×10^6 cells of HT1080 cells suspended in PBS. […] Tumor growth was measured externally using calipers and the volume was determined by the equation V=(L×W^2)×0.5, where L is the largest dimension and W is the largest dimension perpendicular to L. Z-FA-FMK was dissolved in DMSO and administered as 0.02 mg suspended in PBS intratumorally per mouse every day up to 7 days post viral injection, and every 2 days until completion of the experiment. […]

reovirus [4] = assay: Electron microscopy of reovirus-infected HT1080 cells; assay type: cell-based, Dearing strain of reovirus serotype 3; details: HT1080, MOI of 40, 20 μM, 48 hr post-infection
Protocol: FIGS. 2A-2B: Electron microscopic analysis of reovirus infected HT1080 cells in the presence or absence of Z-FA-FMK treatment. HT1080 cells grown to 50-70% confluency were infected with reovirus at MOI of 40, then either Z-FA-FMK (20 μM) or control medium was added in the culture medium. After 48 hr culture, cells were prepared for electron microscopic examination as described in the Examples. (FIG. 2A) HT1080 infected with reovirus in the absence of Z-FA-FMK showing scattered virions and viral inclusions (factory) (arrows) in the perinuclear region. Scale represents 500 nm×10,000 (above). […] Scale represents 100 nm×80,000 (FIG. 2B) HT1080 infected with reovirus in the presence of Z-FA-FMK showing scattered reovirus virion particles (arrows) but no reoviral inclusions in the perinuclear region. Scale represents 500 nm×10,000 (above). Scattered virions with empty shell (arrows) are present in perinuclear region (bottom). Scale represents 200 nm×40,000.
EM preparation was performed by the University of Calgary Microscopy & Imaging Facility. Cells grown on glass slides were rinsed briefly with PBS (phosphate buffered saline) and fixed with 4% EM grade glutaraldehyde in 0.1 M cacodylate buffer (pH 7.4) for 1 hr at room temperature (RT). After washing three times with the same buffer, cells were post-fixed in 1% osmium tetroxide buffered with 0.1 M cacodylate for 1 hr at RT. […]

Compound: CCCNC(=O)[C@H]1O[C@@H]1C(=O)N[C@H](C(=O)N1CCC[C@H]1C(=O)OC)[C@@H](C)CC [CA-074Me]
- reovirus viral yield (reovirus [1]): decreased viral yields yet not a complete blockage of viral yield

Compound: O=C(CF)C(CCc1ccccc1)NC(=O)C(Cc1ccccc1)NC(=O)N1CCOCC1 (stereo not drawn) [Mu-FhF-FMK, N-Morpholineurea-phenylalanyl-homophenylalanyl-fluoromethylketone] ({Morpholide-CO}-Phe-[hPhe]-CH2F; configuration not given here)
- reovirus-mediated cytopathogenicity (reovirus [2]): effectively inhibited reovirus-mediated cytopathogenicity

Compound: C[C@H](NC(=O)[C@H](Cc1ccccc1)NC(=O)OCc1ccccc1)C(=O)CF [Z-FA-FMK, N-benzyloxycarbonyl-Phe-Ala-fluoromethylketone]
- inactivation of cathepsin B (cellular cathepsin B): potent inactivator of cellular cathepsin B
- GFP expression level of BGMK monolayers (myxoma virus): significantly suppressed
- myxoma infectivity (GFP expressing cells) (myxoma virus): inhibitory effects were not detectable
- myxoma virus foci development (myxoma virus): significantly suppressed as Z-FA-FMK dosages were increased; also recorded: the inhibition of foci development is more readily detectable
- viral replication activity of HIV-1 (HIV type 1 virus): did not affect viral replication activity
- viral replication activity of influenza A (influenza A virus): did not affect viral replication activity
- reovirus replication activity in heart tissue (immunohistochemistry) (reovirus [3]): effectively blocked
- reovirus replication activity in tumor tissue (immunohistochemistry) (reovirus [3]): effectively blocked
- viral factory formation (EM) (reovirus [4]): did not form these viral factories
- virion morphology (EM) (reovirus [4]): all of the scattered viral particles contained empty capsids
- reoviral replication potential by FACS (reoviral antigen) (reovirus [2]): effectively suppressed reoviral replication potential in a dose-dependent manner
- reovirus replication (cytopathic morphology, viral antigens by western blotting and FACS) (reovirus [2]): completely blocked reovirus replication

Compound: Z-Val-Ala-Asp-fluoromethylketone [Z-VAD-FMK]
- reovirus-mediated cytopathogenicity (reovirus [2]): effectively inhibited reovirus-mediated cytopathogenicity
